Among the data in patent publication US20180273538A1, “PYRROLO[2,3-d]PYRIMIDINE DERIVATIVES, A PROCESS FOR THEIR PREPARATION AND PHARMACEUTICAL COMPOSITIONS CONTAINING THEM” (LES LABORATOIRES SERVIER, priority 2015, published 2018) are IC50 values, retold here.

For this test, the target named is T1, His-TEV-DYRK1A Kinase domain (aa127-485) (Homo sapiens, UniProt Q13627).
T1 construct: His-TEV-DYRK1A Kinase domain (aa127-485); His (N); TEV cleavage site (N)
Description: Kinase ADP assay (ADP Hunter Plus). It counts as biochemical.

As to `Cc1nc(N2CCC3(CCCCC3)CC2)c2c(-c3ccnc(N)c3)c[nH]c2n1` [Example 101, 4-[4-(3-azaspiro[5.5]undec-3-yl)-2-methyl-7H-pyrrolo[2,3-d]pyrimidin-5-yl]pyridin-2-amine], the IC50 worked out at 0.034 µM. `Cc1nc(N2CCC3(CCC(C)CC3)C2)c2c(-c3ccnc(N)c3)c[nH]c2n1` (centres unmarked) [Example 102, 4-[2-methyl-4-(8-methyl-2-azaspiro[4.5]dec-2-yl)-7H-pyrrolo[2,3-d]pyrimidin-5-yl]pyridin-2-amine]: the IC50 was determined as 0.293 µM. Take `Cc1nc(N2CCC2c2ccccc2)c2c(-c3ccnc(N)c3)c[nH]c2n1` (centres unmarked) [Example 103, 4-[2-methyl-4-(2-phenylazetidin-1-yl)-7H-pyrrolo[2,3-d]pyrimadin-5-yl]pyridin-2-amine]: the 50% inhibitory concentration (IC50) is 0.694 µM. Turning to `Cc1nc(N2CCC(C(F)(F)F)CC2)c2c(-c3ccnc(N)c3)c[nH]c2n1` [Example 105, 4-{2-methyl-4-[4-(trifluoromethyl)piperidin-1-yl]-7H-pyrrolo[2,3-d]pyrimidin-5-yl}pyridin-2-amine], the IC50 was 0.121 µM. For the compound `Cc1nc(N2CCCC2C(F)(F)F)c2c(-c3ccnc(N)c3)c[nH]c2n1` (centres unmarked) [Example 107, 4-{2-methyl-4-[2-(trifluoromethyl)pyrrolidin-1-yl]-7H-pyrrolo[2,3-d]pyrimidin-5-yl}pyridin-2-amine], the IC50 amounted to 0.666 µM.

Consider `Cc1nc(N2CC3(CCCCC3)C2)c2c(-c3ccnc(N)c3)c[nH]c2n1` [Example 109, 4-[4-(2-azaspiro[3.5]non-2-yl)-2-methyl-7H-pyrrolo[2,3-d]pyrimidin-5-yl]pyridin-2-amine], for which the IC50 was 0.524 µM.

Turning to `Cc1nc(N2CC[C@H]3CCCC[C@H]3C2)c2c(-c3ccnc(N)c3)c[nH]c2n1` [Example 110], the IC50 was determined as 0.048 µM. For the compound `Cc1nc(N2CC[C@H]3CCCC[C@@H]3C2)c2c(-c3ccnc(N)c3)c[nH]c2n1` [Example 111, 4-{2-methyl-4-[(4aR,8aS)-octahydro-isoquinolin-2(1H)-yl]-7H-pyrrolo[2,3-d]pyrimidin-5-yl}pyridin-2-amine], the IC50 was determined as 0.013 µM. Turning to `Cc1nc(NCC2COc3ccccc32)c2c(-c3ccnc(N)c3)c[nH]c2n1` (centres unmarked) [Example 112, 5-(2-aminopyridin-4-yl)-N-(2,3-dihydro-1-benzofuran-3-ylmethyl)-2-methyl-7H-pyrrolo[2,3-d]pyrimidin-4-amine], the IC50 came out at 0.234 µM. To `COc1cccnc1C(C)Nc1nc(C)nc2[nH]cc(-c3ccnc(N)c3)c12` (centres unmarked) [Example 113, 5-(2-aminopyridin-4-yl)-N-[1-(3-methoxypyridin-2-yl)ethyl]-2-methyl-7H-pyrrolo[2,3-d]pyrimidin-4-amine] belongs 0.114 µM; to `Cc1nc(N[C@@H]2CCc3ccccc32)c2c(-c3cc(N)nc(N)c3)c[nH]c2n1` [Example 118, 4-{4-[(1R)-2,3-dihydro-1H-inden-1-ylamino]-2-methyl-7H-pyrrolo[2,3-d]pyrimidin-5-yl}pyridine-2,6-diamine], 0.011 µM. Consider `Cc1nc(N(C)Cc2c(F)cccc2F)c2c(-c3ccnc(N)c3)c[nH]c2n1` [Example 120, 5-(2-aminopyridin-4-yl)-N-(2,6-diflurobenzyl)-N,2-dimethyl-7H-pyrrolo[2,3-d]pyrimidin-4-amine], for which the IC50 was found to be 0.115 µM. As to `CCC(Nc1nc(C)nc2[nH]cc(-c3ccnc(N)c3)c12)c1ncccc1F` (centres unmarked) [Example 121, 5-(2-aminopyridin-4-yl)-N-[1-(3-fluoropyridin-2-yl)propyl]-2-methyl-7H-pyrrolo[2,3-d]pyrimidin-4-amine], the IC50 was found to be 0.066 µM.

Regarding `Cc1nc(N[C@@H](C)c2ncccc2F)c2c(-c3ccnc(N)c3)c[nH]c2n1` [Example 122, 5-(2-aminopyridin-4-yl)-N-[(1S)-1-(3-fluoropyridin-2-yl)ethyl]-2-methyl-7H-pyrrolo[2,3-d]pyrimidin-4-amine], the 50% inhibitory concentration (IC50) amounted to 0.05 µM. To `Cc1nc(NCCc2ccccn2)c2c(-c3ccnc(N)c3)c[nH]c2n1` [Example 124, 5-(2-aminopyridin-4-yl)-2-methyl-N-[2-(pyridin-2-yl)ethyl]-7H-pyrrolo[2,3-d]pyrimidin-4-amine] belongs 0.296 µM.

`Cc1nc(N2C[C@@H](C)O[C@@H](C)C2)c2c(-c3cc(N)nc(N)c3)c[nH]c2n1` [Example 126, 4-{4-[(2R,6S)-2,6-dimethylmorpholin-4-yl]-2-methyl-7H-pyrrolo[2,3-d]pyrimidin-5-yl}pyridine-2,6-diamine + 4-{4-[(2S,6R)-2,6-dimethylmorpholin-4-yl]-2-methyl-7H-pyrrolo[2,3-d]pyrimidin-5-yl}pyridine-2,6-diamine]: the IC50 came to 0.418 µM.

For `Cc1nc(Nc2ccccc2)c2c(-c3ccnc(N)c3)c[nH]c2n1` [Example 129, 5-(2-aminopyridin-4-yl)-2-methyl-N-phenyl-7H-pyrrolo[2,3-d]pyrimidin-4-amine], the half-maximal inhibitory concentration (IC50) amounted to 0.072 µM. For the compound `Cc1nc(Nc2ccccc2C(F)(F)F)c2c(-c3ccnc(N)c3)c[nH]c2n1` [Example 130, 5-(2-aminopyridin-4-yl)-2-methyl-N-[2-(trifluoromethyl)phenyl]-7H-pyrrolo[2,3-d]pyrimidin-4-amine], the half-inhibitory concentration (IC50) is 0.26 µM. Regarding `Cc1nc(Nc2ccccc2C(F)(F)F)c2c(-c3cc(N)nc(N)c3)c[nH]c2n1` [Example 131, 4-(2-methyl-4-{[2-(trifluoromethyl)phenyl]amino}-7H-pyrrolo[2,3-d]pyrimidin-5-yl)pyridine-2,6-diamine], the IC50 worked out at 0.6 µM. To `COC1CCN(c2nc(C)nc3[nH]cc(-c4ccnc(N)c4)c23)CC1` [Example 133, 4-[4-(4-methoxypiperidin-1-yl)-2-methyl-7H-pyrrolo[2,3-d]pyrimidin-5-yl]pyridin-2-amine] belongs 0.269 µM. `Cc1nc(N2CCOCC2)c2c(-c3ccnc(N)c3)c[nH]c2n1` [Example 134, 4-[2-methyl-4-(morpholin-4-yl)-7H-pyrrolo[2,3-d]pyrimidin-5-yl]pyridin-2-amine]: the IC50 came to 0.848 µM. Turning to `Cc1nc(N2CCn3ccnc3C2)c2c(-c3ccnc(N)c3)c[nH]c2n1` [Example 135, 4-[4-(5,6-dihydroimidazo[1,2-a]pyrazin-7(8H)-yl)-2-methyl-7H-pyrrolo[2,3-d]pyrimidin-5-yl]pyridin-2-amine], the IC50 was 0.091 µM. As to `Cc1nc(N2CCc3nccnc3C2)c2c(-c3ccnc(N)c3)c[nH]c2n1` [Example 136, 4-[4-(7,8-dihydropyrido[3,4-b]pyrazin-6(5H)-yl)-2-methyl-7H-pyrrolo[2,3-d]primidin-5-yl]pyridin-2-amine], the IC50 was determined as 0.169 µM.

In the case of `Cc1nc(N2CCOC(C)C2)c2c(-c3ccnc(N)c3)c[nH]c2n1` (centres unmarked) [Example 137, 4-[2-methyl-4-(2-methylmorpholin-4-yl)-7H-pyrrolo[2,3-d]pyrimidin-5-yl]pyridin-2-amine], the IC50 is 0.336 µM. With `COC1CCCN(c2nc(C)nc3[nH]cc(-c4ccnc(N)c4)c23)C1` (centres unmarked) [Example 138, 4-[4-(3-methoxypiperidin-1-yl)-2-methyl-7H-pyrrolo[2,3-d]pyrimidin-5-yl]pyridin-2-amine], the IC50 stood at 0.407 µM. Next, `COC1CCN(c2nc(C)nc3[nH]cc(-c4cc(N)nc(N)c4)c23)CC1` [Example 139, 4-[4-(4-methoxypiperidin-1-yl)-2-methyl-7H-pyrrolo[2,3-d]pyrimidin-5-yl]pyridine-2,6-diamine]: 0.883 µM.

For orientation: IC50 means the point on the concentration scale where inhibition reaches its midpoint.
